Laboratory results published in the NIST ThermoML archive (doi:10.1016/j.jct.2008.07.009).
± gives the expanded uncertainty stated by the source.

Assay: xn = mol fraction of the nth substance listed
Conditions: 101 kPa, Liquid, Vibrating tube method

CC(=O)N1CCOCC1 [4-acetylmorpholine] + Cc1ccccc1
mass density [kg/m3]
Conditions	293.15 K	303.15 K	313.15 K	323.15 K	333.15 K	343.15 K
x2 = 0.0498	1104.1 ± 6.1	1096.4 ± 6.1	1087.8 ± 6.1	1079.4 ± 6.1	1071.2 ± 6.1	1063.2 ± 6.1
x2 = 0.0975	1094.3 ± 6.1	1086.5 ± 6.1	1077.8 ± 6	1069.6 ± 6	1061.4 ± 6	1053.3 ± 6
x2 = 0.1453	1084 ± 6	1076.5 ± 6	1068.2 ± 6	1059.9 ± 6	1051.6 ± 6	1043.4 ± 6
x2 = 0.2109	1070.1 ± 6	1062.5 ± 6	1054 ± 6	1045.6 ± 6	1036.8 ± 6	1029.2 ± 6
x2 = 0.2873	1053.3 ± 6	1045.4 ± 6	1037.1 ± 6	1028.6 ± 6	1020.2 ± 6	1012 ± 6
x2 = 0.3276	1044.3 ± 6	1036.5 ± 6	1028.1 ± 6	1019.5 ± 6	1011 ± 6	1002.5 ± 6
x2 = 0.3865	1030.8 ± 6	1022.8 ± 6	1014.6 ± 6	1005.8 ± 6	997.2 ± 6	988.6 ± 6
x2 = 0.4536	1015.1 ± 6	1007 ± 6	998.7 ± 6	989.8 ± 6	981.2 ± 6	972.2 ± 6
x2 = 0.4953	1005.1 ± 6	996.9 ± 6	988.7 ± 6	979.7 ± 6	970.8 ± 6	962.1 ± 6
x2 = 0.5235	998.4 ± 6	990 ± 6	981.7 ± 6	972.7 ± 6	964.1 ± 6	954.5 ± 6
x2 = 0.5641	988.2 ± 6	979.8 ± 6	971.6 ± 6	962.5 ± 6	953.8 ± 6	944.9 ± 6
x2 = 0.6033	978.3 ± 6	969.9 ± 6	961.7 ± 6	952.5 ± 6	943.8 ± 6	935 ± 6
x2 = 0.6844	957.3 ± 6	949 ± 6	940.7 ± 6	931.5 ± 6	922.7 ± 6	913.9 ± 6
x2 = 0.7562	937.8 ± 6	929.6 ± 6	921.3 ± 6	912.1 ± 6	903.2 ± 6	894.7 ± 6
x2 = 0.8126	922.2 ± 6	913.7 ± 6	905.5 ± 6	896.2 ± 6	887.4 ± 6	879.3 ± 6
x2 = 0.8843	901.8 ± 6	893.2 ± 6	885 ± 6	875.6 ± 6	866.8 ± 6	857.9 ± 6
x2 = 0.9225	890.5 ± 6	881.8 ± 6	873.5 ± 6	864.1 ± 6	855.3 ± 6	846.4 ± 6
x2 = 0.9832	872.3 ± 6	863.3 ± 6	855.2 ± 6	845.9 ± 6	837.1 ± 6	828.2 ± 6

CC(=O)N1CCOCC1 [4-acetylmorpholine] + c1ccccc1
mass density [kg/m3]
Conditions	293.15 K	303.15 K	313.15 K	323.15 K	333.15 K	343.15 K
x2 = 0.0546	1104.6 ± 6.1	1096.7 ± 6.1	1088.2 ± 6.1	1079.6 ± 6.1	1071 ± 6.1	1062.4 ± 6.1
x2 = 0.1127	1094.9 ± 6.1	1086.8 ± 6.1	1078.1 ± 6	1069.3 ± 6	1060.6 ± 6	1051.8 ± 6
x2 = 0.1568	1087.2 ± 6	1079 ± 6	1070.2 ± 6	1061.2 ± 6	1052.4 ± 6	1043.5 ± 6
x2 = 0.2099	1078 ± 6	1069.6 ± 6	1060.6 ± 6	1051.3 ± 6	1042.3 ± 6	1033.2 ± 6
x2 = 0.2673	1067.5 ± 6	1058.9 ± 6	1049.8 ± 6	1040.5 ± 6	1031.4 ± 6	1022.1 ± 6
x2 = 0.3128	1059 ± 6	1050.2 ± 6	1040.9 ± 6	1031.6 ± 6	1022.2 ± 6	1012.9 ± 6
x2 = 0.3564	1050.6 ± 6	1041.7 ± 6	1032.3 ± 6	1022.8 ± 6	1013.4 ± 6	1003.9 ± 6
x2 = 0.4056	1040.8 ± 6	1031.7 ± 6	1022.2 ± 6	1012.5 ± 6	1002.9 ± 6	993.3 ± 6
x2 = 0.4562	1030.1 ± 6	1020.8 ± 6	1011.2 ± 6	1001.4 ± 6	991.7 ± 6	981.8 ± 6
x2 = 0.5039	1019.5 ± 6	1010.1 ± 6	1000.3 ± 6	990.4 ± 6	980.6 ± 6	970.6 ± 6
x2 = 0.5683	1004.5 ± 6	994.9 ± 6	984.9 ± 6	974.9 ± 6	964.9 ± 6	954.8 ± 6
x2 = 0.6138	993.3 ± 6	983.5 ± 6	973.5 ± 6	963.4 ± 6	953.2 ± 6	942.6 ± 6
x2 = 0.6866	974.4 ± 6	964.5 ± 6	954.3 ± 6	943.9 ± 6	933.6 ± 6	923.3 ± 6
x2 = 0.7437	958.7 ± 6	948.6 ± 6	938.3 ± 6	927.7 ± 6	917.6 ± 6	907.1 ± 6
x2 = 0.8033	941.3 ± 6	931.1 ± 6	920.7 ± 6	910.2 ± 6	899.7 ± 6	889.2 ± 6
x2 = 0.8659	922.4 ± 6	912.1 ± 6	901.6 ± 6	891 ± 6	880.5 ± 6	869.8 ± 6
x2 = 0.9154	906.8 ± 6	896.3 ± 6	885.8 ± 6	875.2 ± 6	864.6 ± 6	853.8 ± 6
x2 = 0.9687	889.4 ± 6	878.9 ± 6	868.4 ± 6	857.7 ± 6	847 ± 6	836.3 ± 6
